# Test results: patent EP0312245A2, “Polycyclic compounds and pharmaceutical compositions thereof” (NORISTAN HOLDINGS LIMITED, priority 1987, dated 1989)
# Where two headings read alike, the source gives them in different places.
# Experiments:
# [1] = tested on: guinea-pig papillary muscle; assay: Electrophysiological test: action potential of guinea-pig papillary muscle (microelectrode technique); settings: for TIME 1 (Shortest time needed to attain suppression) / TIME 2 (Shortest time needed for reversal of effect by washing out of compound): at the listed bath concentration; for DEGREE OF SUPPRESSION: suppression of action potential at the listed bath concentration; for minimal effective concentration: Cavia porcellus
# Description: Electrophysiological studies were conducted on guinea-pig papillary muscle.
# Using a microelectrode technique, action potentials were measured from guinea-pig papillary muscles. Action potentials were evoked by electrical stimulation (platinum electrode, Grass S88 stimulator, 1 Hz stimulation frequency; voltage, 10% above threshold). […] The preparations were electrically driven (pacing intervals 1 s, duration 2-5 ms). Slow (Ca2+ mediated) action potentials were evoked in a depolarizing solution (22 mmol/l K and 5 mmol/I Ca^2+) at 0,35 Hz stimulation frequency in order to ensure complete removal of inactivation of slow inward current.
# [2] = tested on: isolated rabbit ear preparation; assay: Rabbit ear perfusion test (adrenaline-induced tone, perfusion pressure)
# Description: Female New Zealand White rabbits (approximately 4kg) were anaesthetised with Sagatal ® (0.5ml/kg).
# The central ear artery was cannulated using a 20 G catheter and the ear cut off at its base. Heparinised (5ml, 200 IU;ml) Krebs bicarbonate solution was perfused through the ear to expel the blood. The ear was placed in a warming jacket at 37°C and attached via the arterial catheter to the perfusion pump. Perfusion of the ear with aerated (95% 025% C02)Krebs bicarbonate solution at 37° C was commenced at a rate of 6.5ml/min using a Watson Marlow peristaltic pump. The perfusion pressure was monitored continuously using a pressure transducer (Type 4-327-1221, Consoliated Electrodynamics) coupled to a Devices Recorder.
# Following an equilibration period of 15 minutes, increased tone was induced in the preparation by addition of adrenaline (1µg/ml) to the perfusion fluid.
# After a stable tone was observed, various concentrations of test compounds were injected into the perfusion fluid and examined for their effect on the perfusion pressure. The effect of vehicle (0.2ml, 50% Krebs 50% ethanol) was also tested on the ear preparation.
# [3] = read-out: BATH CONCENTRATION (Lowest concentration of the compound to induce suppression of action potential), Table 3, guinea-pig papillary muscle
# [4] = Oryctolagus cuniculus, Table 5, dose 100 µg, read-out: Mean % change in perfusion pressure
# [5] = Oryctolagus cuniculus, Table 5, dose 316 µg, read-out: Mean % change in perfusion pressure
# [6] = Oryctolagus cuniculus, Table 5, dose 1000 µg, read-out: Mean % change in perfusion pressure
# [7] = Oryctolagus cuniculus, Table 5, dose 3160 µg, read-out: Mean % change in perfusion pressure
# [8] = read-out: BATH CONCENTRATION (Lowest concentration of the compound to induce suppression of action potential), Table 4, racemates and optical isomers
molecule,measurement,setting,value
"1 (or7)-Methyl-8-(3-phenylpropyl)-amino-8,11-oxopentacyclo[5.4.0.0^2,6.0^3,10.0^5,9 ]undecane [Compound 12]",TIME 1 (Shortest time needed to attain suppression),[1]; Table 3,12 min
same,TIME 2 (Shortest time needed for reversal of effect by washing out of compound),[1]; Table 3,20 min
same,DEGREE OF SUPPRESSION,[1]; Table 3,complete
"1(or7)-Methyl-8-(2-phenylethyl)-amino-8,11-oxopentacyclo [5.4.0.0^2,6.0^3,1.0^5,9 ]undecane [Compound 11]",TIME 1 (Shortest time needed to attain suppression),[1]; Table 3,32 min
same,TIME 2 (Shortest time needed for reversal of effect by washing out of compound),[1]; Table 3,35 min
same,DEGREE OF SUPPRESSION,[1]; Table 3,partial
"1(or7)-Methyl-8-benzylamino-8,11-oxopentacyclo [5.4.0.0^2,6.0^3,10.0^5,9 ]undecane [Compound 10]",TIME 1 (Shortest time needed to attain suppression),[1]; Table 3,20 min
same,TIME 2 (Shortest time needed for reversal of effect by washing out of compound),[1]; Table 3,10 min
same,DEGREE OF SUPPRESSION,[1]; Table 3,complete
"1(or7)-Methyl-8-η-butylamino-8,11-oxopentacyclo[5.4.0.0^2,6.0^3,10.0^5,9]undecane [Compound 8]",TIME 1 (Shortest time needed to attain suppression),[1]; Table 3,22 min
same,TIME 2 (Shortest time needed for reversal of effect by washing out of compound),[1]; Table 3,6 min
same,DEGREE OF SUPPRESSION,[1]; Table 3,complete
"1(or 7)-Methyl-8-methylamino-8,11-oxopentacyclo[5.4.0.0^2,6.0^3,10.0^5,9] undecane [Compound 7]",TIME 1 (Shortest time needed to attain suppression),[1]; Table 3,12 min
same,DEGREE OF SUPPRESSION,[1]; Table 3,very little
"CNC12OC3C4C5CC(C6C5C3C61)C42 (racemic) [Compound 1, 8-Methylamino-8,11-oxopentacyclo[5.4.0.0^2,6 .0^3,10 .0^5,9]-undecane]",minimal effective concentration,[1]; [3],120 µM
same,TIME 1 (Shortest time needed to attain suppression),[1]; Table 3,25 min
same,DEGREE OF SUPPRESSION,[1]; Table 3,very little
"CCCCNC12OC3C4C5CC(C6C5C3C61)C42 (racemic) [Compound 2, 8-η-Butylamino-8,11-oxopentacyclo[5.4.0.0^2,6 .0^3,10 .0^5,9]undecane]",inhibition at 0.1 mg,[2]; [4],7.5%
same,inhibition at 0.316 mg,[2]; [5],8%
same,inhibition at 1 mg,[2]; [6],12%
same,inhibition at 3.16 mg,[2]; [7],26%
same,Mean time taken to return to pre-dose volume,"[2]; Table 5, dose 1000 µg",5.5 min
same,Mean time taken to return to pre-dose volume,"[2]; Table 5, dose 3160 µg",5.75 min
same,minimal effective concentration,[1]; [3],150 µM
same,minimal effective concentration,[1]; [8],150 µM
same,TIME 1 (Shortest time needed to attain suppression),[1]; Table 3,29 min
same,DEGREE OF SUPPRESSION,[1]; Table 3,very little
same,TIME 1 (Shortest time needed to attain suppression),[1]; Table 4,25 min
same,DEGREE OF SUPPRESSION,[1]; Table 4,little
"c1ccc(CNC23OC4C5C6CC(C7C6C4C72)C53)cc1 (racemic) [Compound 4, 8-Benzylamino-8,11-oxopentacyclo[5.4.0.0^2,6 .0^3,10 .0^5,9]undecane]",minimal effective concentration,[1]; [3],20 µM
same,minimal effective concentration,[1]; [8],20 µM
same,TIME 1 (Shortest time needed to attain suppression),[1]; Table 3,15 min
same,TIME 2 (Shortest time needed for reversal of effect by washing out of compound),[1]; Table 3,10 min
same,DEGREE OF SUPPRESSION,[1]; Table 3,complete
same,TIME 1 (Shortest time needed to attain suppression),[1]; Table 4,15 min
same,TIME 2 (Shortest time needed for reversal of effect by washing out of compound),[1]; Table 4,10 min
same,DEGREE OF SUPPRESSION,[1]; Table 4,complete
"c1ccc(CCCNC23OC4C5C6CC(C7C6C4C72)C53)cc1 (racemic) [Compound 6, 8-(3-Phenylpropyl)-amino-8,11-oxopentacyclo [5.4.0.0^2,6.0^3,10.0^5,9] undecane]",minimal effective concentration,[1]; [3],50 µM
same,TIME 1 (Shortest time needed to attain suppression),[1]; Table 3,18 min
same,TIME 2 (Shortest time needed for reversal of effect by washing out of compound),[1]; Table 3,14 min
same,DEGREE OF SUPPRESSION,[1]; Table 3,complete
"CCNC12OC3C4C5CC(C6C5C3C61)C42 (racemic) [Compound 13, 8-Ethylamino-8,11-oxopentacyclo [5.4.0.0^2,6.0^3,10.0^5,9]undecane]",inhibition at 0.1 mg,[2]; [4],6%
same,inhibition at 0.316 mg,[2]; [5],7%
same,inhibition at 1 mg,[2]; [6],5.5%
same,inhibition at 3.16 mg,[2]; [7],11.5%
same,Mean time taken to return to pre-dose volume,"[2]; Table 5, dose 3160 µg",2.0 min
"CCCCCCCCCCCCNC12OC3C4C5CC(C6C5C3C61)C42 (racemic) [Compound 14, 8-η -Dodecylamino-8,11-oxopentacyclo [5.4.0.0^2,6.0^3,10.0^5,9]undecane]",inhibition at 0.0316 mg,"[2]; Oryctolagus cuniculus, Table 7, dose 31.6 μg, read-out: Mean % change in perfusion pressure",6.1%
same,inhibition at 0.1 mg,"[2]; Oryctolagus cuniculus, Table 7, dose 100 μg, read-out: Mean % change in perfusion pressure",12.4%
same,inhibition at 0.316 mg,"[2]; Oryctolagus cuniculus, Table 7, dose 316 μg, read-out: Mean % change in perfusion pressure",8.7%
same,inhibition at 1 mg,"[2]; Oryctolagus cuniculus, Table 7, dose 1000 μg, read-out: Mean % change in perfusion pressure",6.6%
same,inhibition at 3.16 mg,"[2]; Oryctolagus cuniculus, Table 7, dose 3160 μg, read-out: Mean % change in perfusion pressure",7.7%
"CC(C)CNC12OC3C4C5CC(C6C5C3C61)C42 (racemic) [Compound 15, 8-Isobutylamino-8,11-oxopentacyclo [5.4.0.0^2,60^3,10.0^5,9]-undecane]",inhibition at 0.1 mg,[2]; [4],6.5%
same,inhibition at 0.316 mg,[2]; [5],8.5%
same,inhibition at 1 mg,[2]; [6],7%
same,inhibition at 3.16 mg,[2]; [7],21%
same,Mean time taken to return to pre-dose volume,"[2]; Table 5, dose 3160 µg",2.5 min
"CCCCNC12OC3C4C5CC(C6C5C3C61)C42 (single isomer, unassigned) [(+) -2, 8-η -butylamino-8,11-oxopentacyclo [5.4.0.0^2,6.0^3,10.0^5,9] undecane]",TIME 1 (Shortest time needed to attain suppression),[1]; Table 4,25 min
same,DEGREE OF SUPPRESSION,[1]; Table 4,very little
"CCCCCCCCNC12OC3C4C5CC(C6C5C3C61)C42 (single isomer, unassigned) [(+) -3, 8-η -octylamino-8,11-oxopentacyclo [5.4.0.0^2,6.0^3,10.0^5,9]undecane]",TIME 1 (Shortest time needed to attain suppression),[1]; Table 4,30 min
same,TIME 2 (Shortest time needed for reversal of effect by washing out of compound),[1]; Table 4,11 min
same,DEGREE OF SUPPRESSION,[1]; Table 4,incomplete
"c1ccc(CNC23OC4C5C6CC(C7C6C4C72)C53)cc1 (single isomer, unassigned) [(+) -4, 8-benzylamino-8,11-oxopentacyclo [5.4.0.0^2,6.0^3,10.0^5,9]undecane]",TIME 1 (Shortest time needed to attain suppression),[1]; Table 4,20 min
same,TIME 2 (Shortest time needed for reversal of effect by washing out of compound),[1]; Table 4,15 min
same,DEGREE OF SUPPRESSION,[1]; Table 4,complete
"CCCCNC12OC3C4C5CC(C6C5C3C61)C42 (single isomer, unassigned) [(-) -2, 8-η -butylamino-8,11-oxopentacyclo [5.4.0.0^2,6.0^3,10.0^5,9] undecane]",minimal effective concentration,[1]; [8],130 µM
same,TIME 1 (Shortest time needed to attain suppression),[1]; Table 4,25 min
same,DEGREE OF SUPPRESSION,[1]; Table 4,little
"CCCCCCCCNC12OC3C4C5CC(C6C5C3C61)C42 (single isomer, unassigned) [(-) -3, 8-η -octylamino-8,11-oxopentacyclo [5.4.0.0^2,6.0^3,10.0^5,9]undecane]",TIME 1 (Shortest time needed to attain suppression),[1]; Table 4,10 min
same,TIME 2 (Shortest time needed for reversal of effect by washing out of compound),[1]; Table 4,7 min
same,DEGREE OF SUPPRESSION,[1]; Table 4,complete
"c1ccc(CNC23OC4C5C6CC(C7C6C4C72)C53)cc1 (single isomer, unassigned) [(-) -4, 8-benzylamino-8,11-oxopentacyclo [5.4.0.0^2,6.0^3,10.0^5,9]undecane]",minimal effective concentration,[1]; [8],56.6 µM
same,TIME 1 (Shortest time needed to attain suppression),[1]; Table 4,10 min
same,TIME 2 (Shortest time needed for reversal of effect by washing out of compound),[1]; Table 4,5 min
same,DEGREE OF SUPPRESSION,[1]; Table 4,complete
"COc1ccc(CCN(C)CCCC(C#N)(c2ccc(OC)c(OC)c2)C(C)C)cc1OC (stereo not drawn) [Verapamil, reference compound]",minimal effective concentration,[1]; [3],40 µM
same,TIME 1 (Shortest time needed to attain suppression),[1]; Table 3,10 min
same,TIME 2 (Shortest time needed for reversal of effect by washing out of compound),[1]; Table 3,15 min
same,DEGREE OF SUPPRESSION,[1]; Table 3,complete
